From EP4211126B1, “PHOTOCHEMICAL SYNTHESIS OF LOW PARTICLE SIZE MONODISPERSE GOLD NANOPARTICLES, LOADING WITH CANCER DRUG, AND DETERMINATION OF CYTOTOXIC ACTIVITY OF THE SAME” (Yildiz Teknik Universitesi, priority 2020, dated 2022)

Test system: acute promyelocytic leukemia (HL-60) cells
Experiment: MTT colorimetric cytotoxicity test
Assay type: cell-based
Details: 72 hours of incubation, compared with DOXO in free form
Experimental: MTT (3- (4,5-dimethylthiazol-2-yl) -2,5-diphenyl-2H-tetrazolium bromide) colorimetric test allows the quantitation of living cells whose mitochondrial activity is maintained in the culture medium. […] P<0.05 was considered significant.
According to MTT experiments, after 72 hours of incubation, the effect of DOXO in free form, i.e., not loaded on AuNps, as well as the DOXO-loaded AuNps was investigated for acute promyelocytic leukemia (HL-60) and chronic myeloid leukemia (K562) cells, and the results are given in Figure 5 and Figure 6, respectively.

For COc1cccc2c1C(=O)c1c(O)c3c(c(O)c1C2=O)C[C@@](O)(C(=O)CO)C[C@@H]3O[C@H]1C[C@H](N)[C@H](O)[C@H](C)O1 [DOXO, Doxorubicin], the “cytotoxic effect (cell viability)” value was “should be used in higher amounts in order to have a similar cytotoxic effect”.
